# From ChEMBL document CHEMBL1138726, “Novel diarylsulfonylurea derivatives as potent antimitotic agents” (Bioorg Med Chem Lett, 2004)
# Assays:
# A549 = test: Inhibition of human non-small cell lung cancer A549 cell proliferation; format: functional
# HCT-116 = test: Compound was tested for growth inhibition of human colon carcinoma HCT116 cell line; format: functional
# [1] = Compound was tested for inhibition of tubulin polymerisation
# NCI-H460 = test: Compound was tested for growth inhibition of human non-small cell lung cancer NCI-H460 cell line; format: functional
# NCI-H226 = test: Compound was tested for growth inhibition of multidrug resistant tumor NCI-H226 cell line; format: functional; details: Homo sapiens
# MCF7 = test: Compound was tested for growth inhibition of MCF-7 cell line (non multidrug resistant); format: functional; details: Homo sapiens
# A498 = test: Compound was tested for growth inhibition of multidrug resistant tumor A498 cell line; format: functional; details: Homo sapiens
# NCI/ADR-RES = test: Compound was tested for growth inhibition of multidrug resistant tumor MCF-7/ADR cell line; format: functional; details: Homo sapiens
# HCT-15 = test: Compound was tested for growth inhibition of multidrug resistant tumor HCT-15 cell line; format: functional; details: Homo sapiens
# [2] = Compound was tested for inhibition of tubulin polymerisation at 1 uM
inhibition [2],SMILES,GI50 (A549),GI50 (HCT-116),IC50 [1],GI50 (NCI-H460),GI50 (NCI-H226),GI50 (MCF7),GI50 (A498),GI50 (NCI/ADR-RES),GI50 (HCT-15)
,O=C(c1ccco1)N1CCc2cc(S(=O)(=O)N3CC(c4cccs4)NC3=O)ccc21 (centres undefined),0.06 µM,0.07 µM,4 µM,0.06 µM,,,,,
,O=C(NC1CCCCC1)N1CCc2cc(S(=O)(=O)N3C[C@H](c4ccccc4)NC3=O)ccc21,0.06 µM,0.05 µM,2 µM,0.08 µM,0.15 µM,0.15 µM,0.7 µM,1.3 µM,0.12 µM
,O=C(c1ccc([N+](=O)[O-])o1)N1CCc2cc(S(=O)(=O)N3C[C@H](c4ccccc4)NC3=O)ccc21,0.95 µM,0.27 µM,40 µM,0.95 µM,,,,,
,Nc1ccc(C(=O)N2CCc3cc(S(=O)(=O)N4CC(c5cccs5)NC4=O)ccc32)cc1 (centres undefined),0.18 µM,0.3 µM,10.5 µM,0.25 µM,,,,,
,CC(=O)O[C@H]1C(=O)[C@@]2(C)[C@H]([C@H](OC(=O)c3ccccc3)[C@]3(O)C[C@H](OC(=O)[C@H](O)[C@@H](NC(=O)c4ccccc4)c4ccccc4)C(C)=C1C3(C)C)[C@]1(OC(C)=O)CO[C@@H]1C[C@@H]2O [PACLITAXEL],0.01 µM,< 0.001 µM,,0.007 µM,20 µM,0.01 µM,3.5 µM,8 µM,0.3 µM
,O=C(c1cccs1)N1CCc2cc(S(=O)(=O)N3C[C@H](c4ccccc4)NC3=O)ccc21,0.02 µM,0.01 µM,1.6 µM,0.02 µM,,,,,
82%,O=C(Cc1cccs1)N1CCc2cc(S(=O)(=O)N3C[C@H](c4ccccc4)NC3=O)ccc21,0.007 µM,0.006 µM,< 1 µM,0.007 µM,,,,,
,CCOC(=O)Nc1ccc(S(=O)(=O)N2C[C@H](c3ccccc3)NC2=O)cc1C,0.04 µM,0.07 µM,6 µM,0.07 µM,0.45 µM,0.15 µM,0.13 µM,0.15 µM,0.1 µM
,CCOC(=O)N1CCc2cc(S(=O)(=O)N3C[C@H](c4ccccc4)NC3=O)ccc21,0.08 µM,0.08 µM,1.5 µM,0.08 µM,,,,,
,CC[C@]1(O)C[C@H]2CN(CCc3c([nH]c4ccccc34)[C@@](C(=O)OC)(c3cc4c(cc3OC)N(C=O)[C@H]3[C@@](O)(C(=O)OC)[C@H](OC(C)=O)[C@]5(CC)C=CCN6CC[C@]43[C@@H]65)C2)C1 [VINCRISTINE],0.02 µM,0.001 µM,,0.003 µM,,,,,
,O=C(c1ccncc1)N1CCc2cc(S(=O)(=O)N3C[C@H](c4ccccc4)NC3=O)ccc21,0.13 µM,0.08 µM,10.3 µM,0.09 µM,,,,,
,Nc1ccc(C(=O)N2CCc3cc(S(=O)(=O)N4C[C@H](c5ccccc5)NC4=O)ccc32)cc1,0.02 µM,0.01 µM,1.5 µM,0.02 µM,0.1 µM,0.01 µM,1.2 µM,2 µM,0.12 µM
,Nc1ccc(C(=O)N2CCc3cc(S(=O)(=O)N4CC(c5ccc(F)cc5)NC4=O)ccc32)cc1 (centres undefined),1.2 µM,1.1 µM,,0.9 µM,,,,,
,O=C(NCCN1CCOCC1)N1CCc2cc(S(=O)(=O)N3C[C@H](c4ccccc4)NC3=O)ccc21,2.8 µM,1.2 µM,,1 µM,,,,,
,O=C(c1cc(Cl)nc(Cl)c1)N1CCc2cc(S(=O)(=O)N3C[C@H](c4ccccc4)NC3=O)ccc21,0.38 µM,0.38 µM,22 µM,0.7 µM,,,,,
,CN1CCN(CCOC(=O)N2CCc3cc(S(=O)(=O)N4C[C@H](c5ccccc5)NC4=O)ccc32)CC1,1 µM,1 µM,30 µM,0.9 µM,,,,,
,Nc1ccc(C(=O)Nc2ccc(S(=O)(=O)N3C[C@H](c4ccccc4)NC3=O)cc2Cl)cc1,0.06 µM,0.06 µM,5.5 µM,0.06 µM,,,,,
,O=C(CNc1ccccc1)N1CCc2cc(S(=O)(=O)N3C[C@H](c4ccccc4)NC3=O)ccc21,0.08 µM,0.05 µM,3.5 µM,0.15 µM,0.15 µM,0.15 µM,0.15 µM,0.18 µM,0.1 µM
